Test results reported in US20250228873A1, “C25 R AND S ISOMERS OF AMINOSTEROLS AND METHODS OF MAKING AND USING THE SAME” (Enterin, Inc., priority 2022, published 2025).
Like-named read-outs stand apart in the source and are kept apart here.

Assays:
PTPN7/LC-PTP = biological target: T1, PTPN7/LC-PTP (Homo sapiens, UniProt P35236); experiment: Phosphatase panel, DiFMUP fluorescence assay; assay type: biochemical
T1 construct: purchased Recation Biology Inc
T1 sequence (P35236 1-360): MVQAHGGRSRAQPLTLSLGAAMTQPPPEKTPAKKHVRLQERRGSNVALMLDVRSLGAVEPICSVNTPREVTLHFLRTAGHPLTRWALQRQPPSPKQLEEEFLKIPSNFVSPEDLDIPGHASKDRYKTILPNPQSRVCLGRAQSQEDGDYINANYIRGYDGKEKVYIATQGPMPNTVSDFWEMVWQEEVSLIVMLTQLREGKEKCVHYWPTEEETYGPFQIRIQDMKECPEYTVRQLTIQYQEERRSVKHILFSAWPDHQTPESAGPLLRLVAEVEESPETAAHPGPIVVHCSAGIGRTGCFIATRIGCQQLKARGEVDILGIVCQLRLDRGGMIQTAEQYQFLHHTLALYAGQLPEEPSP

PTPN12/PTP-PEST = biological target: T2, PTPN12/PTP-PEST (Homo sapiens, UniProt Q05209); experiment: Phosphatase panel, DiFMUP fluorescence assay; assay type: biochemical
T2 construct: purchased Recation Biology Inc
T2 sequence (Q05209 1-780): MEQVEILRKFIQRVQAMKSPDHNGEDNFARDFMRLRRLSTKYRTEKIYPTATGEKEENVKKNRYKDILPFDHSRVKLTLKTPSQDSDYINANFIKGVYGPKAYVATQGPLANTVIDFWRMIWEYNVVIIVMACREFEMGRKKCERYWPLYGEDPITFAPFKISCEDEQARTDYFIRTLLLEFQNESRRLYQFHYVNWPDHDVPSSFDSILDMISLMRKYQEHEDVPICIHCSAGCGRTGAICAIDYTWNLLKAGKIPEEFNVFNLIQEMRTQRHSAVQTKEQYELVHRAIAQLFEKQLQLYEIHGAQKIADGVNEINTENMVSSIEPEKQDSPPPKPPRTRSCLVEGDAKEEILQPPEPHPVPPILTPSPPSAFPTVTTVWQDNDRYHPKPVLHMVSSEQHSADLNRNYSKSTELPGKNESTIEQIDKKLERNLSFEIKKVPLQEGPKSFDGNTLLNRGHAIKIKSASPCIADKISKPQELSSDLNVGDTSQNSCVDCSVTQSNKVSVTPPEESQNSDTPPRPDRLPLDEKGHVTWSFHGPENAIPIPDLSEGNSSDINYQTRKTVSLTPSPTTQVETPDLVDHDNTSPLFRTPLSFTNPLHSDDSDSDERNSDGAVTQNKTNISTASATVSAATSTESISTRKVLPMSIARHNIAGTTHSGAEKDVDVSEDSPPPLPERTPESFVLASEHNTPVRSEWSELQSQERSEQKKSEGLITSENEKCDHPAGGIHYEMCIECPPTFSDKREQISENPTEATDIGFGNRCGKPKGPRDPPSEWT

[1] = biological target: T3, PP2A Alpha/PP2R1A Complex (Homo sapiens, UniProt P67775); experiment: Phosphatase panel, DiFMUP fluorescence assay; assay type: biochemical
T3 construct: purchased Recation Biology Inc
T3 sequence (P67775 whole entry): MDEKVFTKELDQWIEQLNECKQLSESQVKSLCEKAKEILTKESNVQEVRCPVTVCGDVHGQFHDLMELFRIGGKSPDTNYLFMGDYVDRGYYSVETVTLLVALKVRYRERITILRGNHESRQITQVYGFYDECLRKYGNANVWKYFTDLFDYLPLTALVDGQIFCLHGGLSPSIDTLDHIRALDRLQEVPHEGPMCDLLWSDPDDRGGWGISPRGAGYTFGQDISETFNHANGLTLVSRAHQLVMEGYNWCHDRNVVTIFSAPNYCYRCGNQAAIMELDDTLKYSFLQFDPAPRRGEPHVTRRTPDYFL
T3 sequence (P30153 whole entry partner): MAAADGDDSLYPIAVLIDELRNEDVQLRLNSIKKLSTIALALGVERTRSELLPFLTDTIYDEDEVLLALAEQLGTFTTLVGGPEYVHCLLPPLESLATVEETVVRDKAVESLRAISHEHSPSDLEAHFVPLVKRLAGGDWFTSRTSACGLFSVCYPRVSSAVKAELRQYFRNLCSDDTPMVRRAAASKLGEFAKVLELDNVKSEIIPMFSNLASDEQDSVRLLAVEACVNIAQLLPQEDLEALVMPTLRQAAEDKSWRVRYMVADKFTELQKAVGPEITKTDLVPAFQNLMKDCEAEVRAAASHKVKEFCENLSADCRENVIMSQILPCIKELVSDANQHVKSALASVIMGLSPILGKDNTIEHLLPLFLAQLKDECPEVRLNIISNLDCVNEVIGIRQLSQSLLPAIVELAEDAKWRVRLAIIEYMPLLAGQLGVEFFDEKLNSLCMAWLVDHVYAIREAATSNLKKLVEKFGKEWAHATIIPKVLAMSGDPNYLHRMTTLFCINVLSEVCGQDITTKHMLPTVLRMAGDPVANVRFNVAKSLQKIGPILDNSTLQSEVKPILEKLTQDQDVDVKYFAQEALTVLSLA

PTPN11/SHP2-FL(E76K) = biological target: T4, PTPN11/SHP2-FL(E76K) (Homo sapiens, UniProt Q06124, E76K); experiment: Phosphatase panel, DiFMUP assay, E76K mutant
T4 sequence (Q06124 2-597 isoform Q06124-1 E76K): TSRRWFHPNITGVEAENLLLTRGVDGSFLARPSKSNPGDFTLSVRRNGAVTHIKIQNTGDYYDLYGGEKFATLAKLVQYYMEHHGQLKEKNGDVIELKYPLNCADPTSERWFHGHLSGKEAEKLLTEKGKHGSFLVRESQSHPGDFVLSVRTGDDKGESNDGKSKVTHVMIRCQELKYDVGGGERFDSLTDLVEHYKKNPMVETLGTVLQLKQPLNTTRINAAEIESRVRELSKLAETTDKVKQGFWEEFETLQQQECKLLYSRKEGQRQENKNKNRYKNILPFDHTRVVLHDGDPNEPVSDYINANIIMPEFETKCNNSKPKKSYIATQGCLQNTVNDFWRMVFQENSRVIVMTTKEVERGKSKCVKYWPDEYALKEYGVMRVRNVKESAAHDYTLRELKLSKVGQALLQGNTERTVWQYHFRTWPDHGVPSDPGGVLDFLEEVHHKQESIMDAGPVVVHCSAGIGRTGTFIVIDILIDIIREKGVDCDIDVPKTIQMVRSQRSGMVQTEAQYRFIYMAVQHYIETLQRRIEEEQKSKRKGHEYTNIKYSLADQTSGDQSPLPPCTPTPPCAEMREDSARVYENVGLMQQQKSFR

PTPN11/SHP2 = biological target: T5, PTPN11/SHP2 (Homo sapiens, UniProt Q06124); experiment: Phosphatase panel, DiFMUP fluorescence assay; assay type: biochemical; conditions: read-out: inhibitory activity PTPN11/SHP
T5 sequence (Q06124 1-593): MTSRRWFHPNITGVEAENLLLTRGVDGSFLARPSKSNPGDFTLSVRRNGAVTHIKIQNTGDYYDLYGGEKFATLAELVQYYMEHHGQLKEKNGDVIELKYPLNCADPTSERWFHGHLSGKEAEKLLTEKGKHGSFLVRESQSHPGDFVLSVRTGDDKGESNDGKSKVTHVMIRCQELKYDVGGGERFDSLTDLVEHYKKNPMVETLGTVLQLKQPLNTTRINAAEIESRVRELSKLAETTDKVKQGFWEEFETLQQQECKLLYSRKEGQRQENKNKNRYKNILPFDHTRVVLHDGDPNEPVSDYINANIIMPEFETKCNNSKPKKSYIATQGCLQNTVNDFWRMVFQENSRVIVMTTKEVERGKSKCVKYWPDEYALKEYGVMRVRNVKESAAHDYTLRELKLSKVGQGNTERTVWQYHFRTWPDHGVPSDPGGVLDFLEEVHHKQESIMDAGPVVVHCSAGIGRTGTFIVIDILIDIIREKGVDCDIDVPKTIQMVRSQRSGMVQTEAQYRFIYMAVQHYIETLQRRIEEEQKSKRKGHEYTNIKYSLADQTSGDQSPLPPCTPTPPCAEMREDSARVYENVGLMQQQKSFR

[2] = Table 5C, read-out: Compound IC50 (M) PTPN7/LC-PTP
[3] = Table 5C, read-out: Compound IC50 (M) PTPN12/PTP-PEST
[4] = Table 5B, read-out: Compound IC50 (M) PP2A Alpha/PP2R1A Complex
[5] = Table 19B, read-out: inhibitory activity PTPN7/LC-PTP
[6] = Table 19B, read-out: inhibitory activity PTPN12/PTP-PEST
[7] = Table 19A, read-out: inhibitory activity PP2A Alpha/PP2R1A Complex

Structure (SMILES)	IC50 (PTPN7/LC-PTP; [2])	IC50 (PTPN12/PTP-PEST; [3])	IC50 [1, 4]	IC50 (PTPN11/SHP2-FL(E76K))	IC50 (PTPN7/LC-PTP; [5])	IC50 (PTPN12/PTP-PEST; [6])	IC50 (PTPN11/SHP2; Table 19A)	activity at PP2 Å alpha [1]	IC50 [1, 7]	IC50 (PTPN7/LC-PTP; Table 18B, read-out: inhibitory activity PTPN7/LC-PTP)	IC50 (PTPN12/PTP-PEST; Table 18B, read-out: inhibitory activity PTPN12/PTP-PEST)	IC50 (PTPN11/SHP2; Table 18A)	IC50 ([1]; Table 18A, read-out: inhibitory activity PP2A Alpha/PP2R1A Complex)
CC(C)[C@@H](CC[C@@H](C)[C@H]1CC[C@H]2[C@@H]3[C@H](O)C[C@H]4C[C@@H](NCCCNCCCCNCCCN)CC[C@]4(C)[C@H]3CC[C@]12C)OS(=O)(=O)O (single isomer, unassigned) [ENT-02 (MSI-1436), trodusquemine]	1.65e-06 M	1.72e-06 M	5.72e-05 M	0.292 µM	–	–	–	–	–	–	–	–	–
CC(CCC[C@@H](C)[C@H]1CCC2C3C(CC[C@@]21C)[C@@]1(C)CC[C@H](NCCCNCCCCNCCCN)C[C@@H]1C[C@H]3O)C(=O)O (single isomer, unassigned) [ENT-03]	6.34e-07 M	8.61e-07 M	> 0.0001 M	0.294 µM	6.34e-07 M	8.61e-07 M	5 µM	inactive	> 0.0001 M	–	–	–	–
CC(CCC[C@@H](C)[C@H]1CCC2C3C(CC(O)[C@@]21C)[C@@]1(C)CC[C@H](NCCCNCCCCN)C[C@@H]1C[C@H]3O)C(=O)O (single isomer, unassigned) [ENT-05]	–	–	–	0.043 µM	–	–	–	–	–	3.97e-06 M	> 0.0001 M	18.4 µM	3.8e-06 M
CC(CCC[C@@H](C)[C@H]1CCC2C3C(CC[C@@]21C)[C@@]1(C)CC[C@H](NCCCNCCCCN)C[C@@H]1C[C@H]3O)C(=O)O (single isomer, unassigned) [ENT-06]	–	–	–	0.345 µM	1.05e-06 M	8.62e-07 M	3.45 µM	–	> 0.0001 M	–	–	–	–
